Here are results for three compounds from ChEMBL document CHEMBL5154913, “Phenyl Bis-Sulfonamide Keap1-Nrf2 Protein-Protein Interaction Inhibitors with an Alternative Binding Mode” (J Med Chem, 2022).

Values after ≈ are worked out from the molar mass of the structure shown.

One series relates to ARPE-19. The experiment in a line: Cytotoxicity against human ARPE-19 cells assessed as reduction in cell viability at 1 uM incubated for 96 hrs by MTT assay relative to control. The following applies: arpe-19, 96 h. It counts as toxicity, cell-based.
Series [1] can be described thus: Aqueous solubility of the compound at pH 7.4. The following applies: aqueous medium. Format: physicochemical.
The nature of series [2]: Permeability of the compound across artificial membrane by IAM binding assay. Format: ADME.

Turning to `COC(=O)[C@]12CCC(C)(C)C[C@H]1[C@H]1C(=O)C=C3[C@@]4(C)C=C(C#N)C(=O)C(C)(C)[C@@H]4CC[C@@]3(C)[C@]1(C)CC2` [BARDOXOLONE METHYL], the Activity entry with ARPE-19 is listed as “Toxic”.
For orientation: solubility means the dissolved amount per volume that the medium holds. Low values mean little dissolved substance, high ones much dissolved substance. Regarding `COc1ccc(S(=O)(=O)N(CC(=O)O)c2ccc(N(CC(=O)O)S(=O)(=O)c3ccc(OC)cc3)c(OCc3ccccc3)c2)cc1`, the concentration in solution in series [1] (solubility) was 348 µg/mL (≈ 519 µM).
For `COc1ccc(S(=O)(=O)N(CC(=O)O)c2ccc(N(CC(=O)O)S(=O)(=O)c3ccc(OC)cc3)c(OCc3cccc(OC)c3)c2)cc1`, the “log K” value in series [2] worked out at 1.83.
